# Measured values: patent US20110039873A1, “SUBSTITUTED PYRAZOLO[1,5-a] PYRIDINE COMPOUNDS HAVING MULTI-TARGET ACTIVITY” (priority 2009, published 2011)
# Where two headings read alike, the source gives them in different places.
# Legend:
# [1] = molecular target: T1, recombinant full length human JNK3 enzyme (Homo sapiens, UniProt P53779); test: JNK 3 inhibition assay (ATP depletion, luciferase); type: biochemical; settings: for IC50: 10 uM ATP, ATF2 substrate
# T1 construct: recombinant full length human JNK2 or JNK3 enzyme; purchased Upstate; host or cells: Sf21 cells
# Method: In a 96-well plate, recombinant full length human JNK2 or JNK3 enzyme (40 ng) expressed in Sf21 cells (Upstate) was incubated with the substrate ATF2 (3 uM) for 1 hour in the presence of 10 uM ATP. […] The ATP levels were quantified using luciferase with luminescence read on a Victor Light 1420 luminometer. IC50 calculations were plotted using a nonlinear regression curve fit.
# [2] = molecular target: T2, recombinant human phosphodiesterase 10A1 enzyme (Homo sapiens, UniProt Q9Y233); test: PDE10 inhibition assay (PDELight); type: biochemical; settings: for IC50: 1 uM cAMP, read-out: PDE 10 Inhibition (IC50 in μM); for PDE-10 inhibition (in words): Table 2
# T2 construct: purchased BPS Biosciences; host or cells: Baculovirus infected Sf9 cells
# Method: In a 96-well plate, recombinant human phosphodiesterase 10A1 enzyme (10 U/well) expressed in Baculovirus infected Sf9 cells (BPS Biosciences) was combined with 1 uM cAMP substrate (Sigma). […] Using a PDELight® kit (Cambrex), the amount of AMP produced in the reaction from the hydrolysis of cAMP was quantified using PDELight AMP Detection Reagent which converts the AMP directly to ATP. The assay uses luciferase, which catalyses the formation of light from the newly formed ATP and luciferin. The luminescence was read on a Victor Light 1420 luminometer. IC50 calculations were plotted using a nonlinear regression curve fit.
# [3] = molecular target: T3, catalytic domain of phosphodiesterase 4B enzyme cloned from human brain (Homo sapiens, UniProt Q07343); test: PDE4 inhibition assay (PDELight); type: biochemical; settings: for IC50: 5 uM cAMP, read-out: PDE 4 Inhibition (IC50 in μM)
# T3 construct: the catalytic domain of phosphodiesterase 4B enzyme; purchased Scottish Biomedical
# Method: In a 96-well plate, the catalytic domain of phosphodiesterase 4B enzyme (40 mU/well) cloned from human brain (Scottish Biomedical) was combined with 5 uM cAMP substrate (Sigma). […] Using a PDELight® kit (Cambrex), the amount of AMP produced in the reaction from the hydrolysis of cAMP was quantified using PDELight AMP Detection Reagent which converts the AMP directly to ATP. The assay uses luciferase, which catalyses the formation of light from the newly formed ATP and luciferin. […] IC50 calculations were plotted using a nonlinear regression curve fit.
# [4] = test system: rat chronic constriction injury (CCI) model of neuropathic pain; test: Rat chronic constriction injury (CCI) model of neuropathic pain; type: in vivo; settings: IP, dose not given; 50% paw withdrawal threshold, von Frey
# Method: To induce allodynia, male Sprague-Dawley rats underwent chronic constriction injury (CCI) to the sciatic nerve as described by Bennett and Xie, Pain 1988; 33(1):87-107. The plantar surface of the hind paws was stimulated with von Frey filaments (Stoelting) to induce a withdrawal response by blinded personnel. The bending force of fiber required to induce a 50% withdrawal response was calculated following CCI surgery (pre-dosing baseline). N=5-6 allodynic rats received a single IP or oral administration of test compounds or vehicle. Two hours post-dosing, 50% paw withdrawal threshold was determined again by blinded testers using von Frey filaments. The 50% withdrawal threshold prior to CCI surgery, pre-dosing (10 days post-surgery), and 2 hours post-dosing are plotted.
# For selected compounds multi-day studies were perfumed with pre-determined schedules for dosing and withdrawal threshold assessments.
# [5] = test system: Mouse BV-2 microglial cells; test: BV-2 glial cell assay (TNF-α and MCP-1 by Luminex); type: cell-based; settings: Mus musculus, BV-2, LPS and IFN-γ activated, 20 hours
# Method: Mouse BV-2 microglial cells were seeded on 96-well plates at a concentration of 3×10^4 cells/well. Cells were activated with 100 ng/mL LPS and IFN-γ (100 ng/mL) in the presence or absence of test compounds (0-30 uM). Following incubation for 20 hours, cells were spun down and supernatant collected. The supernatant was analyzed via Luminex for the presence of TNF-α and MCP-1.
# [6] = molecular target: T4, recombinant full length human JNK2 enzyme (Homo sapiens, UniProt P45984); test: JNK 2 inhibition assay (ATP depletion, luciferase); type: biochemical; settings: 10 uM ATP, ATF2 substrate; read-out: JNK 2 Inhibition (IC50 in μM)
# T4 construct: recombinant full length human JNK2 or JNK3 enzyme; purchased Upstate; host or cells: Sf21 cells
# Method: In a 96-well plate, recombinant full length human JNK2 or JNK3 enzyme (40 ng) expressed in Sf21 cells (Upstate) was incubated with the substrate ATF2 (3 uM) for 1 hour in the presence of 10 uM ATP. […] IC50 calculations were plotted using a nonlinear regression curve fit.
# T1 sequence (P53779 whole entry): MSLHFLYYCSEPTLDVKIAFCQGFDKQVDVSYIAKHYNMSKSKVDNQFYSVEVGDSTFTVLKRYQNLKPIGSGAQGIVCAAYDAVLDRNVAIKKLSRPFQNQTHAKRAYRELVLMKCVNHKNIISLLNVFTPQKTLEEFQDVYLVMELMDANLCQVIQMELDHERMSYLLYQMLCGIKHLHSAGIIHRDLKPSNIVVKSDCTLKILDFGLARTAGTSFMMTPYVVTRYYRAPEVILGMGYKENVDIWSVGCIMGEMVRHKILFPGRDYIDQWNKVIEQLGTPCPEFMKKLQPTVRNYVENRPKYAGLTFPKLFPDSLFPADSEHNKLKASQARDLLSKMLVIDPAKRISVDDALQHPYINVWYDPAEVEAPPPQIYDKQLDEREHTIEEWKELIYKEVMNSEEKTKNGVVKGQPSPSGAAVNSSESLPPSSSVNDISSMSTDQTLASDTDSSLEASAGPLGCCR
# T3 sequence (Q07343 330-659 limits assumed): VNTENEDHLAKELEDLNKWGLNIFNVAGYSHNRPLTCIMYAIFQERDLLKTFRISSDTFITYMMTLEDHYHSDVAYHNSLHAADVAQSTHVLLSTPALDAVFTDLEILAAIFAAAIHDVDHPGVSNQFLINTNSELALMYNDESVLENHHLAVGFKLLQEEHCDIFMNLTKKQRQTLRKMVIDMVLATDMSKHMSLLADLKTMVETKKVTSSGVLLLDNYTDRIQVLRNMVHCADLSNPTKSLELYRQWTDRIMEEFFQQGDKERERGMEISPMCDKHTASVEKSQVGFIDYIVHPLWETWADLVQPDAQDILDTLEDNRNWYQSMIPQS
# T2 sequence (Q9Y233 1-779 isoform Q9Y233-1): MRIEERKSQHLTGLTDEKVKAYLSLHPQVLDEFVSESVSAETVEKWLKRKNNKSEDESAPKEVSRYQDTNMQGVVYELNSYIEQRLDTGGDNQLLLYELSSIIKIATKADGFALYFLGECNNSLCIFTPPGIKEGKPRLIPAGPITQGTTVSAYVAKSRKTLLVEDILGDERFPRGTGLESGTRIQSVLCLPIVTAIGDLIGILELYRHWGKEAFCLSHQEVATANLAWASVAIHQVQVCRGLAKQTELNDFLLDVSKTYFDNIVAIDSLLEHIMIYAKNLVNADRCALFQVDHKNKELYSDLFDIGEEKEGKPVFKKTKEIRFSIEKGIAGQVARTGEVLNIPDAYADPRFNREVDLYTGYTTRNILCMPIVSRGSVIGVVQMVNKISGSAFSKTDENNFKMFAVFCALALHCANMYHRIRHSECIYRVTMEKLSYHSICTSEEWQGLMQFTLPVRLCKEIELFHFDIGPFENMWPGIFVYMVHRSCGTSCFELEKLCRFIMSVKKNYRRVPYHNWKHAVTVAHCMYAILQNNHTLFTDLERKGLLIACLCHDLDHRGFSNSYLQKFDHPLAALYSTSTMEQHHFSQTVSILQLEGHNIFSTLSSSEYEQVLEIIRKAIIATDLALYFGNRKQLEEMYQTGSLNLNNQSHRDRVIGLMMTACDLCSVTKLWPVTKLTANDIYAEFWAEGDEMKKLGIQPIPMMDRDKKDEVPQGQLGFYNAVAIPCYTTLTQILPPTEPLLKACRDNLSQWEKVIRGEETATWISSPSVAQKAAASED
# T4 sequence (P45984 whole entry): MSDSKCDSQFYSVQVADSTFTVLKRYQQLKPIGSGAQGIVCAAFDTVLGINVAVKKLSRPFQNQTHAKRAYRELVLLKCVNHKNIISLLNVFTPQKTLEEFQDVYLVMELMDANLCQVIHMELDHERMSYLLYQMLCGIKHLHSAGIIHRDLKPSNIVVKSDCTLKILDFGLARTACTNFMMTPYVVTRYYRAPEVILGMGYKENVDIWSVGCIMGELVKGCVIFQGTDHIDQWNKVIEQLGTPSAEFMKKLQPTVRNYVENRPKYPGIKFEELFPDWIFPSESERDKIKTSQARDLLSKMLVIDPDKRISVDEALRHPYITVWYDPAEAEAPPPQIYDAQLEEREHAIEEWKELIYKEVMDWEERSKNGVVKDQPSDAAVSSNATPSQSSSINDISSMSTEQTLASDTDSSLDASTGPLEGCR
Structure (SMILES),IC50 [1],IC50 [2],IC50 [3],also measured
"CC(C)c1nn2ccccc2c1-c1ccnc(NC2CCNC2)n1 (centres unmarked) [AV1159, 4-(2-isopropylpyrazolo[1,5-a]pyridin-3-yl)-N-(pyrrolidin-3-yl)pyrimidin-2-amine]",,,,IP CCI efficacy (Change in grams) [4]: 0 grams
"CC(C)Nc1nccc(-c2cccc3cc(C(C)C)nn23)n1 [AV1185, N-isopropyl-4-(2-isopropylpyrazolo[1,5-a]pyridin-7-yl)pyrimidin-2-amine]",> 100 µM,> 100 µM,57 µM,
"CC(C)c1cc2cccc(-c3ccnc(NC4CCCC4)n3)n2n1 [AV1186, N-cyclopentyl-4-(2-isopropylpyrazolo[1,5-a]pyridin-7-yl)pyrimidin-2-amine]",> 100 µM,> 100 µM,,
"CC(C)Nc1nccc(-c2cccc3ccnn23)n1 [AV1187, N-isopropyl-4-(pyrazolo[1,5-a]pyridin-7-yl)pyrimidin-2-amine]",> 100 µM,> 100 µM,,
"c1cc(-c2ccnc(NC3CCCC3)n2)n2nccc2c1 [AV1188, N-cyclopentyl-4-(pyrazolo[1,5-a]pyridin-7-yl)pyrimidin-2-amine]",> 100 µM,> 100 µM,,
CC(C)c1nn2ccccc2c1-c1ccnc(NS(C)(=O)=O)n1 [AV1189],> 100 µM,> 100 µM,,
CC(C)c1nn2ccccc2c1-c1ccnc(NS(=O)(=O)c2ccccc2)n1 [AV1190],> 100 µM,,40 µM,
Cc1nn2ccccc2c1-c1ccnc(NS(=O)(=O)c2ccsc2)n1 [AV1191],> 100 µM,> 100 µM,6.8 µM,
"CC(C)Nc1ccc(-c2c(C(C)C)nn3ccccc23)cn1 [AV1197, N-isopropyl-5-(2-isopropylpyrazolo[1,5-a]pyridin-3-yl)pyridin-2-amine]",> 100 µM,17 µM,50.5 µM,
"CC(C)c1nn2ccccc2c1-c1ccc(NC2CCCC2)nc1 [AV1199, N-cyclopentyl-5-(2-isopropylpyrazolo[1,5-a]pyridin-3-yl)pyridin-2-amine]",> 100 µM,7.1 µM,43 µM,PDE-10 inhibition (in words) [2]: particularly effective
"CC(C)Nc1cc(-c2c(C(C)C)nn3ccccc23)ccn1 [AV1202, N-isopropyl-4-(-2-isopropylpyrazolo[1,5-a]pyridin-3-yl)pyridin-2-amine]",> 100 µM,13 µM,> 100 µM,
"CC(C)Nc1ncc(-c2c(C(C)C)nn3ccccc23)cn1 [AV1206, N-isopropyl-5-(-2-isopropylpyrazolo[1,5-a]pyridin-3-yl)pyrimidin-2-amine]",> 100 µM,7.4 µM,43 µM,
"CC(C)c1nn2ccccc2c1-c1cnc(NC2CCCC2)nc1 [AV1207, N-cyclopentyl-5-(-2-isopropylpyrazolo[1,5-a]pyridin-3-yl)pyrimidin-2-amine]",> 100 µM,3.2 µM,24 µM,
"CC(C)c1nn2ccccc2c1-c1ccnc(N(C)C)c1 [AV1208, 4-(-2-isopropylpyrazolo[1,5-a]pyridin-3-yl)-N,N-dimethylpyridin-2-amine]",> 100 µM,5.4 µM,3.9 µM,
"COc1ccc(Cc2nccc3cc(OC)c(OC)cc23)cc1OC [Papaverine, reference compound]",,,,IP CCI efficacy (Change in grams) [4]: 1.35 grams

# Now from value to compound, other results behind:
IC50 [1],IC50 [2],IC50 [3],Structure (SMILES),also measured
> 100 µM,> 100 µM,22 µM,"CC(C)c1nn2ccccc2c1-c1ccnc(N)c1 [AV105, 4-(-2-isopropylpyrazolo[1,5-a]pyridin-3-yl)pyridin-2-amine]",
> 100 µM,12 µM,> 100 µM,"CC(C)c1nn2ccccc2c1-c1ccnc(NC2CCCC2)c1 [AV1021, N-cyclopentyl-4-(-2-isopropylpyrazolo[1,5-a]pyridin-3-yl)pyridin-2-amine]",
83 µM,19 µM,> 100 µM,"CC(C)c1nn2ccccc2c1-c1ccnc(NCCCN2CCN(C)CC2)n1 [AV1135, 4-(2-isopropylpyrazolo[1,5-a]pyridin-3-yl)-N-(3-(4-methylpiperazin-1-yl)propyl)pyrimidin-2-amine]",IP CCI efficacy (Change in grams) [4]: 0 grams
18 µM,> 100 µM,> 100 µM,"CC(C)c1nn2ccccc2c1-c1ccnc(N)n1 [AV1139, 4-(2-isopropylpyrazolo[1,5-a]pyridin-3-yl)pyrimidin-2-amine]",IP CCI efficacy (Change in grams) [4]: 0.21 grams
27 µM,42 µM,5.9 µM,"CCC(CC)Nc1nccc(-c2c(C(C)C)nn3ccccc23)n1 [AV1155, 4-(2-isopropylpyrazolo[1,5-a]pyridin-3-yl)-N-(pentan-3-yl)pyrimidin-2-amine]",IP CCI efficacy (Change in grams) [4]: 0.67 grams; PDE-4 inhibition (in words) [3]: particularly effective
> 100 µM,> 100 µM,> 100 µM,"CC(C)Nc1nccc(-c2c(C(C)(C)C)nn3ccccc23)n1 [AV1157, 4-(2-tert-butylpyrazolo[1,5-a]pyridin-3-yl)-N-isopropylpyrimidin-2-amine]",
0.2 µM,> 100 µM,> 100 µM,"CC(C)Nc1nccc(-c2c(-c3cccc(F)c3)nn3ccccc23)n1 [AV1179, 4-(2-(3-fluorophenyl)pyrazolo[1,5-a]pyridin-3-yl)-N-isopropylpyrimidin-2-amine]",JNK-3 inhibition (in words) ([1]; see Table 2): particularly effective
53 µM,> 100 µM,9.4 µM,O=S(=O)(Nc1nccc(-c2cnn3ccccc23)n1)c1ccccc1 [AV1193],
68 µM,8.3 µM,20.8 µM,"CC(C)c1nn2ccccc2c1-c1ccc(N)nc1 [AV1196, 5-(2-isopropylpyrazolo[1,5-a]pyridin-3-yl)pyridin-2-amine]",PDE-10 inhibition (in words) [2]: particularly effective; PDE-4 inhibition (in words) [3]: particularly effective
> 10 µM,3.8 µM,9.9 µM,"CC(C)c1nn2ccccc2c1-c1cnc(N)nc1 [AV1203, 5-(-2-isopropylpyrazolo[1,5-a]pyridin-3-yl)pyrimidin-2-amine]",EC50 ([5]; read-out: MCP-1 BV-2 (EC50 in μM)): 0.3 µM; EC50 ([5]; read-out: TNF-a BV-2 (EC50 in μM)): 0.8 µM; IC50 [6]: > 100 µM
